Read-outs that look alike come from different tables or passages of the source.
Key:
[1] = tested on: Spodoptera littoralis (Egyptian cotton leafworm); experiment: Spodoptera littoralis cotton leaf disc spray test; assay type: in vivo; conditions: foliar, 72 h, 200 ppm spray on cotton leaf discs, L1 larvae, mortality, feeding behavior, growth regulation 3 days after treatment
Description: (§1) This Example illustrates the insecticidal and acaricidal properties of compounds of formula (I). The tests were performed as follows:
Spodoptera littoralis (Egyptian cotton leafworm):
Cotton leaf discs were placed on agar in a 24-well microtiter plate and sprayed with test solutions at an application rate of 200 ppm. After drying, the leaf discs were infested with 5 L1 larvae. The samples were checked for mortality, feeding behavior, and growth regulation 3 days after treatment (DAT). The following compound gave at least 80% control of Spodoptera littoralis: A1, A2, A5, A6, A7, A8, A10, A11, A12, A13, A14, A15, A16, A17, A18, A19, A21, A22, A23, A24, A25, A30, A31, A32, A33, A34, A35, A39, A40, A41 A42, A43, A44, A45, A46, A47, A48, A49, A50, A51, A53, A54, A55, A59, A60, A61, A62. Heliothis virescens (Tobacco budworm): Eggs (0-24 h old) were placed in 24-well microtiter plate on artificial diet and treated with test solutions at an application rate of 200 ppm (concentration in well 18 ppm) by pipetting. After an incubation period of 4 days, samples were checked for egg mortality, larval mortality, and growth regulation. The following compound gave at least 80% control of Heliothis virescens: A1, A2, A3, A4, A5, A6, A7, A8, A10, A11, A12, A13, A14, A15, A16, A18, A19, A21, A22, A24, A25, A30, A31, A32, A33, A34, A35, A37, A38, A39, A40, A42, A43, A44, A45, A46, A47, A48, A49, A50, A51, A55, AA57, A58, A59, A60, A61, A62. Plutella xylostella (Diamond back moth): 24-well microtiter plate (MTP) with artificial diet was treated with test solutions at an application rate of 200 ppm (concentration in well 18 ppm) by pipetting. After drying, the MTP's were infested with L2 larvae (7-12 per well). After an incubation period of 6 days, samples were checked for larval mortality and growth regulation. The following compound gave at least 80% control of Plutella xylostella: A1, A2, A5, A6, A7, A8, A9, A10, A11, A12, A13, A14, A15, A16, A17, A18, A19, A20, A21, A22, A24, A25, A30, A31, A32, A33, A34, A35, A37, A38, A39, A40, A42, A43, A44, A45, A46, A47, A48, A49, A50, A51, A52, A53, A54, A55, A57, A58, A59, A60, A61, A62, B3. Diabrotica balteata (Corn root worm): A 24-well microtiter plate (MTP) with artificial diet was treated with test solutions at an application rate of 200 ppm (concentration in well 18 ppm) by pipetting. After drying, the MTP's were infested with L2 larvae (6-10 per well). After an incubation period of 5 days, samples were checked for larval mortality and growth regulation. The following compound gave at least 80% control of Diabrotica balteata: A1, A2, A5, A6, A7, A10, A11, A12, A13, A14, A15, A16, A17, A18, A19, A21, A22, A24, A25, A30, A31, A32, A33, A34, A35, A38, A39, A40, A42, A43, A44, A45, A46, A47, A48, A49, A50, A59, A60, A61, A62. Thrips tabaci (Onion thrips): Sunflower leaf discs were placed on agar in a 24-well microtiter plate and sprayed with test solutions at an application rate of 200 ppm. After drying, the leaf discs were infested with an […] population of mixed ages. After an incubation period of 7 days, samples were checked for mortality. The following compounds gave at least 80% control of Thrips tabaci: A1, A2, A5, A6, A7, A8, A10, A12, A13, A14, A15, A16, A17, A18, A19, A21, A24, A25, A30, A31, A32, A33, A34, A35, A39, A42, A43, A44, A45, A46, A47, A48, A49, A50, A51, A53, A54, A57, A58, A59, A60, A61, A62. Tetranychus urticae (Two-spotted spider mite): Bean leaf discs on agar in 24-well microtiter plates were sprayed with test solutions at an application rate of 200 ppm. After drying, the leaf discs are infested with mite populations of mixed ages. 8 days later, discs are checked for egg mortality, larval mortality, and adult mortality. […]

[2] = tested on: Thrips tabaci (Onion thrips); experiment: Thrips tabaci sunflower leaf disc spray test; assay type: in vivo; conditions: foliar, 168 h, 200 ppm spray on sunflower leaf discs, population of mixed ages, mortality after 7 days
Description: as §1
(§2) Cotton leaf discs were placed on agar in a 24-well microtiter plate and sprayed with test solutions at an application rate of 200 ppm. After drying, the leaf discs were infested with 5 L1 larvae. The samples were checked for mortality, feeding behavior, and growth regulation 3 days after treatment (DAT). The following compound gave at least 80% control of Spodoptera littoralis: A1, A2, A5, A6, A7, A8, A10, A11, A12, A13, A14, A15, A16, A17, A18, A19, A21, A22, A23, A24, A25, A30, A31, A32, A33, A34, A35, A39, A40, A41 A42, A43, A44, A45, A46, A47, A48, A49, A50, A51, A53, A54, A55, A59, A60, A61, A62. Heliothis virescens (Tobacco budworm): Eggs (0-24 h old) were placed in 24-well microtiter plate on artificial diet and treated with test solutions at an application rate of 200 ppm (concentration in well 18 ppm) by pipetting. After an incubation period of 4 days, samples were checked for egg mortality, larval mortality, and growth regulation. The following compound gave at least 80% control of Heliothis virescens: A1, A2, A3, A4, A5, A6, A7, A8, A10, A11, A12, A13, A14, A15, A16, A18, A19, A21, A22, A24, A25, A30, A31, A32, A33, A34, A35, A37, A38, A39, A40, A42, A43, A44, A45, A46, A47, A48, A49, A50, A51, A55, AA57, A58, A59, A60, A61, A62. Plutella xylostella (Diamond back moth): 24-well microtiter plate (MTP) with artificial diet was treated with test solutions at an application rate of 200 ppm (concentration in well 18 ppm) by pipetting. After drying, the MTP's were infested with L2 larvae (7-12 per well). After an incubation period of 6 days, samples were checked for larval mortality and growth regulation. The following compound gave at least 80% control of Plutella xylostella: A1, A2, A5, A6, A7, A8, A9, A10, A11, A12, A13, A14, A15, A16, A17, A18, A19, A20, A21, A22, A24, A25, A30, A31, A32, A33, A34, A35, A37, A38, A39, A40, A42, A43, A44, A45, A46, A47, A48, A49, A50, A51, A52, A53, A54, A55, A57, A58, A59, A60, A61, A62, B3. Diabrotica balteata (Corn root worm): A 24-well microtiter plate (MTP) with artificial diet was treated with test solutions at an application rate of 200 ppm (concentration in well 18 ppm) by pipetting. After drying, the MTP's were infested with L2 larvae (6-10 per well). After an incubation period of 5 days, samples were checked for larval mortality and growth regulation. The following compound gave at least 80% control of Diabrotica balteata: A1, A2, A5, A6, A7, A10, A11, A12, A13, A14, A15, A16, A17, A18, A19, A21, A22, A24, A25, A30, A31, A32, A33, A34, A35, A38, A39, A40, A42, A43, A44, A45, A46, A47, A48, A49, A50, A59, A60, A61, A62. Thrips tabaci (Onion thrips): Sunflower leaf discs were placed on agar in a 24-well microtiter plate and sprayed with test solutions at an application rate of 200 ppm. After drying, the leaf discs were infested with an […] population of mixed ages. After an incubation period of 7 days, samples were checked for mortality. The following compounds gave at least 80% control of Thrips tabaci: A1, A2, A5, A6, A7, A8, A10, A12, A13, A14, A15, A16, A17, A18, A19, A21, A24, A25, A30, A31, A32, A33, A34, A35, A39, A42, A43, A44, A45, A46, A47, A48, A49, A50, A51, A53, A54, A57, A58, A59, A60, A61, A62. Tetranychus urticae (Two-spotted spider mite): Bean leaf discs on agar in 24-well microtiter plates were sprayed with test solutions at an application rate of 200 ppm. After drying, the leaf discs are infested with mite populations of mixed ages. 8 days later, discs are checked for egg mortality, larval mortality, and adult mortality. The following compound gave at least 80% control of Tetranychus urticae: A1, A2, A4, A5, A6, A7, A8, A10, A11, A12, A13, A14, A15, A16, A17, A18, A19, A20, A21, A22, A30, A31, A32, A33, A34, A35, A39, A40, A41, A42, A43, A44, A45, A46, A47, A48, A49, A50, A51, A53, A54, A55, A57, A59, A60, A61, A62.

[3] = tested on: Heliothis virescens (Tobacco budworm); experiment: Heliothis virescens egg test on artificial diet; assay type: in vivo; conditions: 96 h, read-out: control of Heliothis virescens
Description: as §1, §2

[4] = tested on: Plutella xylostella (Diamond back moth); experiment: Plutella xylostella larvae test on artificial diet; assay type: in vivo; conditions: 144 h, 200 ppm (concentration in well 18 ppm), artificial diet, L2 larvae, larval mortality and growth regulation after 6 days
Description: as §1, §2

[5] = tested on: Tetranychus urticae (Two-spotted spider mite); experiment: Tetranychus urticae bean leaf disc spray test; assay type: in vivo; conditions: foliar, 192 h, read-out: control of Tetranychus urticae
Description: as §1, §2

[6] = tested on: Diabrotica balteata (Corn root worm); experiment: Diabrotica balteata larvae test on artificial diet; assay type: in vivo; conditions: 120 h, 200 ppm (concentration in well 18 ppm), artificial diet, L2 larvae, larval mortality and growth regulation after 5 days
Description: as §1, §2

[7] = 200 ppm (concentration in well 18 ppm), eggs 0-24 h old on artificial diet, egg mortality, larval mortality, growth regulation after 4 days
[8] = 200 ppm spray on bean leaf discs, mite populations of mixed ages, egg, larval and adult mortality 8 days later

Work on `O=C(NC1CSC1)c1cnn(C2=NOC(c3cc(Cl)cc(Cl)c3)(C(F)(F)F)C2)c1` (centres unmarked) [B4] yielded a melting point of 85 to 87 °C.

For `Cc1cc(C2=NOC(c3cc(Cl)cc(Cl)c3)(C(F)(F)F)C2S(C)(=O)=O)ccc1C(=O)NC1CSC1` (centres unmarked) [A41], the pest or weed control at 200 ppm [1] was ≥ 80%.

For `Cc1cc(C2=NOC(c3cc(Cl)cc(Cl)c3)(C(F)(F)F)/C2=N/O)ccc1C(=O)NC1C[S+]([O-])C1` (centres unmarked) [A57], the pest or weed control at 200 ppm [2] was ≥ 80%, the pest or weed control at 200 ppm [3, 7] was ≥ 80% and the pest or weed control at 200 ppm [4] was ≥ 80%. For the same molecule, the pest or weed control at 200 ppm [5, 8] was ≥ 80%.

For `Cc1cc(C2=NOC(c3cc(Cl)cc(Cl)c3)(C(F)(F)F)C2O)ccc1C(=O)NC1(C)CSC1` (centres unmarked) [A52], the pest or weed control at 200 ppm [4] was ≥ 80%.

With `Cc1cc(N2CC(c3cc(Cl)cc(Cl)c3)(C(F)(F)F)OC2=O)ccc1C(=O)NC1(C)CSC1` (centres unmarked) [A9] the pest or weed control at 200 ppm [4] was ≥ 80%.

With `Cc1cc(C2CC(c3cc(Cl)cc(Cl)c3)(C(F)(F)F)ON2C)ccc1C(=O)NC1(C)CSC1` (centres unmarked) [A20] the pest or weed control at 200 ppm [4] was ≥ 80% and the pest or weed control at 200 ppm [5, 8] was ≥ 80%.

With `Cc1cc(N2CC2(c2cc(Cl)cc(Cl)c2)C(F)(F)F)ccc1C(=O)NC1(C)CSC1` (centres unmarked) [A3] the pest or weed control at 200 ppm [3] was ≥ 80%.

For `Cc1cc(N2CC2(c2cc(Cl)cc(Cl)c2)C(F)(F)F)ccc1C(=O)NC1CSC1` (centres unmarked) [A4], the pest or weed control at 200 ppm [3] was ≥ 80% and the pest or weed control at 200 ppm [5] was ≥ 80%.

In the case of `O=C(NC1CSC1)c1ccn(C2=NOC(c3cc(Cl)cc(Cl)c3)(C(F)(F)F)C2)n1` (centres unmarked) [B3], the pest or weed control at 200 ppm [4] is reported as ≥ 80%.

For `Cc1nn(C2=NOC(c3cc(Cl)cc(Cl)c3)(C(F)(F)F)C2)cc1C(=O)NC1CSC1` (centres unmarked) [B1], the melting point was 177 to 180 °C.

For `O=C(NC1C[S+]([O-])C1)c1ccc(C2=NOC(c3cc(Cl)cc(Cl)c3)(C(F)(F)F)C2)c2nsnc12` (centres unmarked) [A24], the pest or weed control at 200 ppm [4] was ≥ 80%.

For `O=C(NC1CSC1)c1cccc2c(C3=NOC(c4cc(Cl)cc(Cl)c4)(C(F)(F)F)C3)cccc12` (centres unmarked) [A38], the pest or weed control at 200 ppm [6] was ≥ 80%, the pest or weed control at 200 ppm [3, 7] was ≥ 80% and the pest or weed control at 200 ppm [4] was ≥ 80%.

With `C/C=C1\C(c2ccc(C(=O)NC3CSC3)c(C)c2)=NOC1(c1cc(Cl)cc(Cl)c1)C(F)(F)F` (centres unmarked) [A30] the pest or weed control at 200 ppm [6] was ≥ 80%, the pest or weed control at 200 ppm [3, 7] was ≥ 80% and the pest or weed control at 200 ppm [4] was ≥ 80%.

With `O=C(NC1C[S+]([O-])C1)c1cccc2c(C3=NOC(c4cc(Cl)cc(Cl)c4)(C(F)(F)F)C3)cccc12` (centres unmarked) [A37] the pest or weed control at 200 ppm [3, 7] was ≥ 80% and the pest or weed control at 200 ppm [4] was ≥ 80%.

Molecule `Cc1c(C(=O)NC2CSC2)cnn1C1=NOC(c2cc(Cl)cc(Cl)c2)(C(F)(F)F)C1` (centres unmarked) [B2] has a melting point of 77 °C.

In the case of `O=C(NC1CSC1)c1ccc(C2=NOC(c3cc(Cl)cc(Cl)c3)(C(F)(F)F)C2)c2nsnc12` (centres unmarked) [A25], the pest or weed control at 200 ppm [4] is reported as ≥ 80%.

Reference: patent US9216973B2, “Insecticidal compounds” (Syngenta Participations AG, priority 2008, dated 2015)
